Results: patent publication US20230357249A1, “ANDROGEN RECEPTOR PROTEIN DEGRADERS WITH A TRICYCLIC CEREBLON LIGAND” (THE REGENTS OF THE UNIVERSITY OF MICHIGAN, priority 2020, published 2023)

Test system: AR protein
Assay: AR protein degradation in MDA-MB-453 cells, Western blotting
Assay type: cell-based
Set-up: key to AR protein degradation MDA-MB-453 10 nM: A: >90% degradation (24 hr treatment); B: >50% degradation but <90% (24 hr treatment); C: >10% degradation but <50% (24 hr treatment); D: No significant degradation (24 hr treatment)
Settings: 24 hr treatment
Protocol: The appropriate cell line, e.g., prostate cancer LNCaP, Vcap, or 22RV1 cell line, was treated with Compounds of the Disclosure as indicated. The treated cells were lysed with RIPA buffer. The AR level in the cell lysates was examined by western blotting and a specific AR antibody (ab194196, Abcam, Cambridge, MA 02139) with concentration of 1:20,000. GAPDH was used as a loading control.
Bands were quantified with ImageJ software. The relative numbers of each band obtained from normalization with its corresponding GAPDH level were compared with Prism 8 software. The DC50 values were produced from Prism 8, and the DC90 values were calculated with an equation=Bottom + (Top-Bottom)/(1+10^((LogEC50-X)*HillSlope) based on DC50 and Hillslope values.
The amount of AR protein degradation in VCap and MDA-MB-453 cells caused by representative Compounds of the Disclosure at the concentrations indicated is presented in Table 4, FIG. 1, and FIG. 2.

## CC1(C)[C@H](Oc2ccc(C#N)c(Cl)c2)C(C)(C)[C@H]1N1Cc2cc(N3CCN(CC(=O)N4Cc5cc6c(cc5C4)C(=O)N(C4CCC(=O)NC4=O)C6=O)CC3)ccc2C1=O (some centres unmarked) [compound 2]
10 nM
  AR protein degradation MDA-MB-453 10 nM: D
100 nM
  AR protein degradation MDA-MB-453 100 nM: C (>10% degradation but <50% (24 hr treatment))
